Patent US20230381139A1, “METHODS OF TREATING AND/OR PREVENTING ALZHEIMER’S DISEASE WITH R-CARVEDILOL” (priority 2020, published 2023)

Legend:
Aβ = Aβ accumulation (immunohistochemical staining and immunoblotting) in 5×FAD+/− mice; assay type: in vivo, mouse; details: 5×FAD+/− mice 3-4, 4-5 and 6-7 months old after 1-month treatment with 3.2 mg/kg/day; vs DMSO
Experimental: (§1) Adult genetically engineered mice, 5×FAD^+/− (Oakley et al., 2006), RyR2-E4872Q^+/− (EQ^+/−) (Chen et al., 2014), 5×FAD^+/−/RyR2-E4872Q^+/− (5×FAD^+/−/EQ^+/−), and wildtype (WT) littermates of both sexes were used. R-carvedilol (R-CV) (at doses of 0.8, 1.6 or 3.2 mg/kg/day), racemic carvedilol (3.2 mg/kg/day), and vehicle control (DMSO) were delivered to 5×FAD^+/− mice in drinking water for one month, starting at different ages before (2-3 months old) or after (3-4 months old) the occurrence of AD pathologies (Oakley et al., 2006). To assess the effects of genetically and pharmacologically limiting RyR2 open time on the prevention and rescue of AD deficits in different stages (early, moderate, and late) of AD progression, animals at different ages (from 2-15 months) were used. As reported (Oakley et al., 2006), there was an age-dependence of AD progression in the 5×FAD^+/− mice. No sex-dependent differences in AD progression in these mice was observed. For 2-photon Ca^2+ imaging experiments, 5×FAD, RyR2 WT, and RyR2 mutant mice were cross-bred with the heterozygous Thy1-GCaMP6f transgenic mice (Chen et al., 2012; Chen et al., 2013) (GP5.17, JAX 025393) to express the GCaMP6f Ca^2+ sensing probe (driven by the Thy1 promotor) in hippocampal neurons in each of the genotypes used.
Immunoblotting analysis was carried out using the method described previously (Rosen et al., 2010). […]

[1] = tested on: hippocampal CA3-CA1 pathway of 5×FAD+/− mice; assay: Long-term potentiation / fEPSP recording in hippocampal slices from treated 5×FAD+/− mice; assay type: in vivo, mouse; details: vs DMSO
Experimental: as §1, with “As reported (Oakley et al., 2006), there was an age-dependence of AD progression in the 5×FAD^+/− mice. No sex-dependent differences in AD progression in these mice was observed.” left out
Schaffer collateral fibers were stimulated at the CA3 subfield to record field excitatory postsynaptic potentials (fEPSPs) in the CA1 stratum radiatum of transverse hippocampal slices ([…]) from all genotypes and drug-treated mice at different ages. After recovering at room temperature for 1 h (or 2 h for brain slices from drug-treated mice), hippocampal slices were allowed to recover in the recording chamber for additional 10 min. To evaluate basal synaptic transmission, different stimulation strengths (0 μA to 200 μA in steps of 20 μA) were applied and plotted fEPSP slopes versus the current input to compare the slope of input/output (I/O) curves of fEPSP. In the experiments that followed, stimulus current was adjusted so that fEPSP stabilized at 40-50% of maximum. Baseline was recorded for at least […] until the differences among fEPSP slopes were within 10%. Long-term potentiation (LTP) was induced using a tetanic high-frequency stimulation (HFS; 4 trains of 100 pulses at 100 Hz, with 20-sec intervals). Synaptic responses were recorded for at least 60 min after tetanization and quantified as the slope of the evoked fEPSP as percentage of the baseline.

COc1ccccc1OCCNC[C@@H](O)COc1cccc2[nH]c3ccccc3c12 [R-carvedilol, R-(+)-carvedilol]
Aβ accumulation (plaques, total Aβ and Aβ (1-42) levels) (Aβ): without affecting
LTP impairment ([1]; 3.2 mg/kg/day for one month started at 2-3 months of age (before AD symptoms), slices at 3-4 months): prevented
LTP impairment ([1]; 3.2 mg/kg/day for one month started at 3-4 months of age (after AD symptom), slices at 4-5 months): rescued
reduced basal synaptic transmission (fEPSP slope vs stimulus intensity) ([1]; 5×FAD+/− hippocampal brain slices, 3-4, 4-5 and 6-7 months old treated mice): restored
LTP deficit ([1]; 6-7 months old 5×FAD+/− mice after 1-month treatment with 3.2 mg/kg/day): rescues
